Measurements reported in patent US11525008B2, “Methods and pharmaceutical compositions for the treatment of lung cancer” (INSERM (INSTITUT NATIONAL DE LA SANTÉ ET DE LA RECHERCHE …, priority 2016, dated 2022).

How the values were obtained:
Type in all cases: cell-based
[1] = test system: A549 cell line; test: matrigel modified Boyden chamber cell invasion assay after FHIT silencing; details: irbinitinib 10 nM; A549 cells transfected with FHIT siRNA; FIG. 3B
From the text: (§1) FIG. 3: Cell invasion induced by FHIT silencing is HER2-dependent.

[2] = test system: HBE-4-E6/E7 cell line; test: as above; details: irbinitinib 10 nM; HBE-4-E6/E7 cells transfected with FHIT siRNA; FIG. 3A
From the text: as §1

[3] = test system: A549 spheroids; test: collagen I gel invasion by spheroids, timelapse videomicroscopy, after FHIT silencing; details: irbinitinib 15 nM, FHIT siRNA, up to 72h, vs FHIT siRNA+DMSO p=0.0001, FIG. 4
Experimental: FIG. 4: Collagen I gel invasion by A549 spheroids induced by FHIT silencing is HER2-dependent. […] A. Representative phase-contrast images of spheroids at T0 and T=72h. B. Time course analysis of mean diameter of spheroids.** p<0.01; *** p<0.001.

Cc1cc(Nc2ncnc3ccc(NC4=NC(C)(C)CO4)cc23)ccc1Oc1ccn2ncnc2c1 [irbinitinib, N4-(4-([1,2,4]Triazolo[1,5-a]pyridin-7-yloxy)-3-methylphenyl)-N6-(4,4-dimethyl-4,5-dihydrooxazol-2-yl)quinazoline-4,6-diamine]
cell invasion induced by FHIT silencing [1]: reduces cell invasion | cell invasion induced by FHIT silencing [2]: reduces cell invasion | spheroid invasion (tumor cell dispersion into collagen I matrix, mean spheroid diameter) induced by FHIT silencing [3]: reduces spheroid invasion
